Columns and labels:
[1] = pH at which the solution buffers out; format: physicochemical; conditions: in solution, residual on teat surface
teat area of animals = conditions: in vivo

Cc1ccc(S(=O)(=O)[N-]Cl)cc1.[Na+] [CHT, Chloramine T]
pH at which it naturally buffers out [1]: about 9 | irritation of the teat area (teat area of animals): do not irritate the teat area

Reference: patent US20040225017A1, “Chloramine T based teat cleaner and related process” (priority 2003, published 2004)
